Test results from patent US20110263693A1, “CELASTROL, GEDUNIN, AND DERIVATIVES THEREOF AS HSP90 INHIBITORS” (DANA-FARBER CANCER INSTITUTE, INC., priority 2006, published 2011).

Assays:
gedunin signature = assay: Connectivity Map query with the gedunin signature; assay type: cell-based, human; set-up: key to gedunin score (connectivity score): connectivity score, based on Kolmogorov-Smirnov statistic; conditions: for gedunin score (connectivity score): enrichment of the gedunin signature (20 μM gedunin at 6 hours, LNCaP) in the compound's Connectivity Map profiles, 6 hr treatment; for gedunin rank: rank by gedunin score among 164 Connectivity Map compounds
Description: (§1) Indeed, a major challenge in cell-based chemical biology and chemical genomics is the identification of compounds' targets (Gardner et al., 2003). We hypothesized that gene expression signatures could be used to identify compound action based on the similarity of such compound-induced signatures to signatures of existing drugs of known mechanism. We therefore employed a collection of gene expression profiles of drug-treated cell lines that was developed in our lab, termed the Connectivity Map (Lamb et al., 2006). This database comprises 453 genome-wide Affymetrix expression profiles derived from the treatment of human cell lines with 164 small molecules, primarily FDA-approved drugs. A 6 hr treatment time was chosen in an attempt to capture the primary, and potentially mechanistic, effects of the compounds rather than the downstream phenotypic consequences.
(§2) In order to use the Connectivity Map to gain insight into celastrol and gedunin function, we first defined a gene expression signature of celastrol and gedunin activity. The expression signatures of celastrol and gedunin were derived by expression profiling of RNA from LNCaP cells treated with celastrol (1.25 μM), gedunin (20 μM), and vehicle (DMSO) for 6 hr; signatures were defined using comparative marker selection to identify transcripts that distinguished between the compound- and vehicle-treated profiles by the signal-to-noise (SNR) metric. The enrichment of these signatures in the gene expression profiles of the Connectivity Map database was then assessed using a gene enrichment metric, the connectivity score, based on the Kolmogorov-Smirnov statistic (Lamb et al., 2003).
(§3) The celastrol and gedunin signatures were developed from RMA-processed microarray data from LNCaP cells treated with 1.25 μM celastrol or 20 μM gedunin for 6 hours. Comparative marker selection was used to identify markers that distinguished celastrol- and/or gedunin-treated samples from vehicle-treated samples by the median SNR (Golub et al., 1999). The top 50 markers that increased and decreased relative to vehicle-treated controls were used as the signatures.
(§4) The current version of the Connectivity Map data set (build01) contains genome-wide expression data for 453 treatment and vehicle control pairs, representing 164 distinct small molecules. Cell treatments and Affymetrix profiling were predominantly carried out in MCF7 cells with 6 hr treatments as detailed (Table 4) (Lamb et al., 2006). Enrichment of the induced and repressed genes of a signature within each Connectivity Map treatment profile was estimated with a metric based on the Kolmogorov-Smirnov statistic as described (Lamb et al., 2003, Lamb et al., 2006). Connectivity Map data are available at www.broad.mit.edu/cmap/ and GEO (accession number GSE5258).
(§5) For the celastrol and gedunin signatures, RMA-processed data was filtered and thresholded (min fold change=2, min absolute change=50, floor=10, ceiling=16000). Comparative marker selection (GenePattern) was used to identify markers that distinguished celastrol- and/or gedunin-treated samples from vehicle-treated samples by the median SNR. The top fifty markers that increased and decreased relative to vehicle treated controls were used as the celastrol, gedunin, or joint celastrol/gedunin signatures.
(§6) The current version of The Connectivity Map dataset (build01) contains genome-wide expression data for 453 treatment and vehicle control pairs, representing 164 distinct small molecules. Cell treatments were predominantly carried out in the MCF7 cell line for 6 h as detailed in Table 4. Affymetrix profiling was then carried out as described (Lamb et al., 2006).

celastrol signature = assay: Connectivity Map query with the celastrol signature; assay type: cell-based, human; set-up: key to celastrol score (connectivity score): connectivity score, based on Kolmogorov-Smirnov statistic; conditions: for celastrol score (connectivity score): enrichment of the celastrol signature (1.25 μM celastrol at 6 h, LNCaP) in the compound's Connectivity Map profiles, 6 hr treatment; for celastrol rank: rank by celastrol score among 164 Connectivity Map compounds
Description: as §1, §2, §3, §4, §5, §6

## C=C1[C@@H](C)[C@H]2[C@H](Cc3ccccc3)NC(=O)[C@]23OC(=O)/C=C/[C@H](O)CCC[C@@H](C)C/C=C/[C@H]3[C@@H]1O [cytochalasin B]
Gedunin signature
  gedunin score (connectivity score): 0.476
  gedunin rank: 22
Celastrol signature
  celastrol score (connectivity score): 0
  celastrol rank: 125

## Nc1ncn([C@H]2C[C@H](O)[C@@H](CO)O2)c(=O)n1 [decitabine]
Gedunin signature
  gedunin score (connectivity score): 0
Celastrol signature
  celastrol score (connectivity score): 0

## CC(=O)N(O)CCCCCNC(=O)CCC(=O)N(O)CCCCCNC(=O)CCC(=O)N(O)CCCCCN [deferoxamine]
Gedunin signature
  gedunin score (connectivity score): 0
Celastrol signature
  celastrol score (connectivity score): −0.175

## CN[C@H]1CCc2cc(OC)c(OC)c(OC)c2-c2ccc(OC)c(=O)cc21 [demecolcine]
Gedunin signature
  gedunin score (connectivity score): 0
Celastrol signature
  celastrol score (connectivity score): 0

## C[C@@H]1C[C@H]2[C@@H]3CCC4=CC(=O)C=C[C@]4(C)[C@@]3(F)[C@@H](O)C[C@]2(C)[C@@]1(O)C(=O)CO [dexamethasone, reference compound]
Gedunin signature
  gedunin score (connectivity score): 0
Celastrol signature
  celastrol score (connectivity score): 0

## O=C(O)Cc1ccccc1Nc1c(Cl)cccc1Cl [diclofenac]
Gedunin signature
  gedunin score (connectivity score): −0.165
Celastrol signature
  celastrol score (connectivity score): −0.197

## COC(=O)CNC(=O)C(=O)OC [dimelhyloxalylglycine]
Gedunin signature
  gedunin score (connectivity score): 0
  gedunin rank: 119
Celastrol signature
  celastrol score (connectivity score): 0.326
  celastrol rank: 44

## CC/C=C\C/C=C\C/C=C\C/C=C\C/C=C\C/C=C\CCC(=O)OCC [docosahexaenoic acid ethyl ester]
Gedunin signature
  gedunin score (connectivity score): 0.493
  gedunin rank: 21
Celastrol signature
  celastrol score (connectivity score): 0.572
  celastrol rank: 14

## NCCc1ccc(O)c(O)c1 [dopamine]
Gedunin signature
  gedunin score (connectivity score): 0
Celastrol signature
  celastrol score (connectivity score): −0.596

## C[C@H]1c2cccc(O)c2C(=O)C2=C(O)[C@]3(O)C(=O)C(C(N)=O)=C(O)[C@@H](N(C)C)[C@@H]3[C@@H](O)[C@@H]21 [doxycycline]
Gedunin signature
  gedunin score (connectivity score): 0
Celastrol signature
  celastrol score (connectivity score): 0

## C[C@]12CC[C@@H]3c4ccc(O)cc4CC[C@H]3[C@@H]1CC[C@@H]2O [estradiol]
Gedunin signature
  gedunin score (connectivity score): −0.166
Celastrol signature
  celastrol score (connectivity score): 0.017

## C=C1C[C@@H]2[C@H](CC[C@]3(C)C(=O)CC[C@@H]23)[C@@]2(C)C=CC(=O)C=C12 [exemestane]
Gedunin signature
  gedunin score (connectivity score): 0
Celastrol signature
  celastrol score (connectivity score): 0.427

## CC1=C(CC(=O)O)c2cc(F)ccc2/C1=C\c1ccc(S(C)(=O)=O)cc1 [exisulind]
Gedunin signature
  gedunin score (connectivity score): −0.277
Celastrol signature
  celastrol score (connectivity score): −0.038

## O=S(=O)(c1cccc2cnccc12)N1CCCNCC1 [fasudil]
Gedunin signature
  gedunin score (connectivity score): 0
Celastrol signature
  celastrol score (connectivity score): 0

## CCOC(=O)C1=C(C)NC(C)=C(C(=O)OC)C1c1cccc(Cl)c1Cl (stereo not drawn) [felodipine]
Gedunin signature
  gedunin score (connectivity score): 0.171
Celastrol signature
  celastrol score (connectivity score): 0.171

## O=c1c(O)c(-c2ccc(O)c(O)c2)oc2cc(O)ccc12 [fisetin]
Gedunin signature
  gedunin score (connectivity score): 0
Celastrol signature
  celastrol score (connectivity score): 0

## C[C@]12CCC(=O)C=C1CC[C@H]1[C@@H]3CC[C@](O)(C(=O)CO)[C@@]3(C)C[C@H](O)[C@@]12F [fludrocortisone]
Gedunin signature
  gedunin score (connectivity score): 0
Celastrol signature
  celastrol score (connectivity score): 0

## O=C(O)c1ccccc1Nc1cccc(C(F)(F)F)c1 [flufenamic acid]
Gedunin signature
  gedunin score (connectivity score): 0
Celastrol signature
  celastrol score (connectivity score): 0

## OCCN1CCN(CCCN2c3ccccc3Sc3ccc(C(F)(F)F)cc32)CC1 [fluphenazine]
Gedunin signature
  gedunin score (connectivity score): 0.34
Celastrol signature
  celastrol score (connectivity score): 0.481

## C[C@]12CC[C@@H]3c4ccc(O)cc4C[C@@H](CCCCCCCCC[S+]([O-])CCCC(F)(F)C(F)(F)F)[C@H]3[C@@H]1CC[C@@H]2O (stereo partly drawn) [fulvestrant]
Gedunin signature
  gedunin score (connectivity score): 0.19
Celastrol signature
  celastrol score (connectivity score): 0.069

## COc1cc2ncnc(Nc3ccc(F)c(Cl)c3)c2cc1OCCCN1CCOCC1 [gefitinib]
Gedunin signature
  gedunin score (connectivity score): 0
Celastrol signature
  celastrol score (connectivity score): −0.713

## COC1=C2C[C@@H](C)C[C@H](OC)[C@H](O)[C@@H](C)/C=C(\C)[C@H](OC(N)=O)[C@@H](OC)/C=C\C=C(/C)C(=O)NC(=CC1=O)C2=O [geldanamycin, reference compound]
Gedunin signature
  gedunin score (connectivity score): 0.74
Celastrol signature
  celastrol score (connectivity score): 0.676

## O=c1c(-c2ccc(O)cc2)coc2cc(O)cc(O)c12 [genistein]
Gedunin signature
  gedunin score (connectivity score): 0.097
Celastrol signature
  celastrol score (connectivity score): 0.153

## CC#CCC(C)[C@H](O)/C=C/[C@@H]1[C@H]2C/C(=C/CCCC(=O)O)C[C@H]2C[C@H]1O (stereo partly drawn) [iloprost]
Gedunin signature
  gedunin score (connectivity score): 0.101
Celastrol signature
  celastrol score (connectivity score): 0.098

## COc1ccc2c(c1)c(CC(=O)O)c(C)n2C(=O)c1ccc(Cl)cc1 [indometacin]
Gedunin signature
  gedunin score (connectivity score): 0.087
Celastrol signature
  celastrol score (connectivity score): 0.228

## C[C@H](CCC(=O)O)C[C@H](C)C[C@H](C)C(=O)/C=C(\O)[C@H](C)C[C@H](C)C/C=C/[C@@H](C)[C@@H](O)[C@@H](C)[C@@H](O)C[C@@H]1CC[C@@](C)([C@H]2CC[C@@](C)([C@@H](C)O)O2)O1 [ionomycin]
Gedunin signature
  gedunin score (connectivity score): 0.129
Celastrol signature
  celastrol score (connectivity score): 0.556

## S=c1nc[nH]c2nc[nH]c12 [mercaptopurine]
Gedunin signature
  gedunin score (connectivity score): 0.21
Celastrol signature
  celastrol score (connectivity score): −0.121

## Nc1ccc(O)c(C(=O)O)c1 [mesalazine]
Gedunin signature
  gedunin score (connectivity score): 0
Celastrol signature
  celastrol score (connectivity score): 0

## CN(C)C(=N)N=C(N)N [metformin]
Gedunin signature
  gedunin score (connectivity score): −0.108
Celastrol signature
  celastrol score (connectivity score): −0.029

## CN(C)c1ccc(O)c2c1C[C@H]1C[C@H]3[C@H](N(C)C)C(O)=C(C(N)=O)C(=O)[C@@]3(O)C(O)=C1C2=O [minocycline]
Gedunin signature
  gedunin score (connectivity score): 0
Celastrol signature
  celastrol score (connectivity score): 0

## CCOC(=O)C1=C(C)NC(=S)NC1c1cccc(O)c1 (stereo not drawn) [monastrol]
Gedunin signature
  gedunin score (connectivity score): 0.069
Celastrol signature
  celastrol score (connectivity score): 0.226

## CC[C@@]1([C@@H]2O[C@@H]([C@H]3O[C@@](O)(CO)[C@H](C)C[C@@H]3C)C[C@@H]2C)CC[C@H]([C@]2(C)CC[C@]3(C[C@H](O)[C@@H](C)[C@@H]([C@@H](C)[C@@H](OC)[C@H](C)C(=O)O)O3)O2)O1 [monensin]
Gedunin signature
  gedunin score (connectivity score): 0
Celastrol signature
  celastrol score (connectivity score): 0.454

## CCOC(=O)C1=C(C)NC(C)=C(C(=O)OC)C1c1cccc([N+](=O)[O-])c1 (stereo not drawn) [nitrendipine]
Gedunin signature
  gedunin score (connectivity score): 0
Celastrol signature
  celastrol score (connectivity score): 0

## COC(=O)Nc1nc2ccc(C(=O)c3cccs3)cc2[nH]1 [nocodazole]
Gedunin signature
  gedunin score (connectivity score): 0.436
Celastrol signature
  celastrol score (connectivity score): 0.517

## CC(Cc1ccc(O)c(O)c1)C(C)Cc1ccc(O)c(O)c1 (stereo not drawn) [nordihydroguaiaretic acid]
Gedunin signature
  gedunin score (connectivity score): 0.286
Celastrol signature
  celastrol score (connectivity score): 0.264

## CO[C@@H]1[C@@H](OC(N)=O)[C@@H](O)[C@H](Oc2ccc3c(O)c(NC(=O)c4ccc(O)c(CC=C(C)C)c4)c(=O)oc3c2C)OC1(C)C [novobiocin]
Gedunin signature
  gedunin score (connectivity score): 0.261
Celastrol signature
  celastrol score (connectivity score): 0.167

## CC[C@H]1/C=C/C=C/C[C@@H](C)[C@H](O)[C@@](C)(O)C(=O)[C@@H](C)[C@H](O)[C@@H](C)C(=O)[C@@H](C)[C@H](O)[C@@H](C)/C=C/C(=O)O[C@@H]2[C@H](C)[C@H](CC1)O[C@]1(CC[C@H](C)[C@H](C[C@@H](C)O)O1)[C@H]2C [oligomycin]
Gedunin signature
  gedunin score (connectivity score): 0.305
Celastrol signature
  celastrol score (connectivity score): −0.491

## NC(=O)C(=O)O [oxamic acid]
Gedunin signature
  gedunin score (connectivity score): 0
Celastrol signature
  celastrol score (connectivity score): −0.654

## O=C(O)CCc1nc(-c2ccccc2)c(-c2ccccc2)o1 [oxaprozin]
Gedunin signature
  gedunin score (connectivity score): 0.562
Celastrol signature
  celastrol score (connectivity score): 0.445
